ChEMBL document CHEMBL3044577, “Evaluation of biological activity of new hemiesters of 17-hydroxy-16,17-secoestra-1,3,5(10)-triene-16-nitrile” (Med Chem Res, 2011)
Active and inactive are the calls of the source. No cut-off for these calls is given here.

Tests used:
HT-29 [1] = assay: Growth inhibition of Homo sapiens (human) HT-29 cells at 10^-12 to 10^-6 M after 48 hr by MTT assay; type: functional; set-up: concentration or dose not given beside the values
MCF7 [2] = assay: Induction of Homo sapiens (human) MCF7 cell growth at 10^-6 M after 48 hr by MTT assay; conditions: mcf7, 48 h, 1 µM
MCF7 [3] = assay: Growth inhibition of Homo sapiens (human) MCF-7 cell growth at 10^-6 M after 48 hr by MTT assay; type: functional, cell-based
MCF7 [4] = assay: Growth inhibition of Homo sapiens (human) MCF-7 cells at 10^-12 to 10^-7 M after 48 hr by MTT assay; type: functional
Aromatase [5] = biological target: T1, Aromatase (Rattus norvegicus, UniProt P22443); assay: Inhibition of aromatase in Rattus norvegicus (rat) PMSG-treated denucleated ovarian fraction using testosterone as substrate at 10 uM after 15 min by radioimmuno assay; conditions: 0.25 h
T1 sequence (P22443 whole entry): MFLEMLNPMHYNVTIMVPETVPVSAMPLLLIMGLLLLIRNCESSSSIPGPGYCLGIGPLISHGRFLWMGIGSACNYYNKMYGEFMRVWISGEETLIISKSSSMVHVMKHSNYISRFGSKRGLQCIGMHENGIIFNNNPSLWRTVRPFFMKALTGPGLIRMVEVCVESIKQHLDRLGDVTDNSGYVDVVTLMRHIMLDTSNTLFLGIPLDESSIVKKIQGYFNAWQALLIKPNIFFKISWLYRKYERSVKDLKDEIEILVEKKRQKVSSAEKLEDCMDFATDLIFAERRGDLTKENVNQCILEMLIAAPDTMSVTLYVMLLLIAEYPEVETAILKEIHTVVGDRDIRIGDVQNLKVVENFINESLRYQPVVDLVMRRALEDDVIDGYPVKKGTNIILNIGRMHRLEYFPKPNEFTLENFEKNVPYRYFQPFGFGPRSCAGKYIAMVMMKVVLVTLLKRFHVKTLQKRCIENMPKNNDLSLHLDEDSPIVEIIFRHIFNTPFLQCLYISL

HT-29 [6] = assay: Growth inhibition of Homo sapiens (human) HT-29 cells at 10^-12 to 10^-9 M after 48 hr by MTT assay; type: functional, cell-based
MCF7 [7] = assay: Growth inhibition of Homo sapiens (human) MCF-7 cells at 10^-12 to 10^-9 M after 48 hr by MTT assay; type: functional
Aromatase [8] = biological target: T1, Aromatase; assay: Inhibition of aromatase in Rattus norvegicus (rat) PMSG-treated denucleated ovarian fraction using testosterone as substrate at 50 uM after 15 min by radioimmuno assay; conditions: 0.25 h
Rattus norvegicus [9] = assay: Estrogenic activity in female Rattus norvegicus Wistar (rat)assessed as change in uterine weight at 5 mg/kg, sc QD for 3 days relative to control; conditions: in vivo, 72 h
Rattus norvegicus [10] = assay: Antiestrogenic activity in female Rattus norvegicus Wistar (rat) assessed as decrease in estradiol benzoate-induced uterine weight at 5 mg/kg, sc QD for 3 days relative to control; type: functional; conditions: 72 h, route subcutaneous
MRC5 = assay: Cytotoxicity against Homo sapiens (human) MRC5 cells at 10^-12 to 10^-6 M after 48 hr by MTT assay; type: cell-based; conditions: mrc5, 48 h
MDA-MB-231 = type: functional, Homo sapiens
Description: Growth inhibition of Homo sapiens (human) MDA-MB-231 cells at 10^-12 to 10^-6 M after 48 hr by MTT assay

MCF7 [11] = assay: Growth inhibition of Homo sapiens (human) MCF-7 cells at 10^-12 to 10^-6 M after 48 hr by MTT assay; type: functional
Rattus norvegicus [12] = assay: Antiestrogenic activity in female Rattus norvegicus Wistar (rat) assessed as decrease in estradiol benzoate-induced uterine weight at 25 mg/kg, sc QD for 3 days relative to control; type: functional; conditions: 72 h, route subcutaneous
Rattus norvegicus [13] = assay: Estrogenic activity in female Rattus norvegicus Wistar (rat) assessed as change in uterine weight at 25 mg/kg, sc QD for 3 days relative to control; conditions: in vivo, 72 h
[14] = Growth inhibition of Homo sapiens (human) MRC5 cells at 10^-12 to 10^-6 M after 48 hr by MTT assay; type: cell-based; conditions: read-out: GI

| SMILES | inhibition at 10 µM (Aromatase [5]) [%] | inhibition at 50 µM (Aromatase [8]) [%] | Activity (Rattus norvegicus [9]) [%] | growth inhibition (GI) (HT-29 [1]) | Activity (MCF7 [2]) | growth inhibition (GI) (MCF7 [3]) | growth inhibition (GI) (MCF7 [4]) | growth inhibition (GI) (HT-29 [6]) | growth inhibition (GI) (MCF7 [7]) [%] | inhibition in vivo at 5 mg/kg (Rattus norvegicus [10]) [%] | Activity (MRC5) | growth inhibition (GI) (MDA-MB-231) [%] | growth inhibition (GI) (MCF7 [11]) [%] | inhibition in vivo at 25 mg/kg (Rattus norvegicus [12]) [%] | Activity (Rattus norvegicus [13]) [%] | inhibition at 48 h [14] [%] |
| --- | --- | --- | --- | --- | --- | --- | --- | --- | --- | --- | --- | --- | --- | --- | --- | --- |
| C[C@]12CC[C@@H]3c4ccc(O)cc4CC[C@H]3[C@@H]1CC[C@@H]2O [ESTRADIOL] | – | – | – | 20% | Non-toxic | inactive | 10% | – | – | – | – | – | – | – | – | – |
| CC/C(=C(\c1ccccc1)c1ccc(OCCN(C)C)cc1)c1ccccc1.O=C(O)CC(O)(CC(=O)O)C(=O)O [TAMOXIFEN CITRATE] | – | – | 39.78 | Active | Non-toxic | inactive | Active | – | – | – | – | 30 | – | 62.8 | 39.36 | – |
| C[C@]1(COC(=O)CCCC(=O)O)CC[C@@H]2c3ccc(O)cc3CC[C@H]2[C@@H]1CC#N | 16.6 | 67.3 | -9.63 | 10% | – | – | – | – | – | 13.8 | – | 10 | 10 | – | – | 10 |
| C[C@]1(CO)CC[C@@H]2c3ccc(O)cc3CC[C@H]2[C@@H]1CC#N | – | – | -2.06 | – | – | – | – | – | – | 21.1 | – | – | – | – | – | – |

The next lines start with results.

| inhibition at 10 µM (Aromatase [5]) [%] | inhibition at 50 µM (Aromatase [8]) [%] | Activity (Rattus norvegicus [9]) [%] | SMILES | growth inhibition (GI) (HT-29 [1]) | Activity (MCF7 [2]) | growth inhibition (GI) (MCF7 [3]) | growth inhibition (GI) (MCF7 [4]) | growth inhibition (GI) (HT-29 [6]) | growth inhibition (GI) (MCF7 [7]) [%] | inhibition in vivo at 5 mg/kg (Rattus norvegicus [10]) [%] | Activity (MRC5) | growth inhibition (GI) (MDA-MB-231) [%] | growth inhibition (GI) (MCF7 [11]) [%] | inhibition in vivo at 25 mg/kg (Rattus norvegicus [12]) [%] | Activity (Rattus norvegicus [13]) [%] | inhibition at 48 h [14] [%] |
| --- | --- | --- | --- | --- | --- | --- | --- | --- | --- | --- | --- | --- | --- | --- | --- | --- |
| 17.9 | 88.2 | -3.92 | C[C@]1(COC(=O)CCCC(=O)O)CC[C@@H]2c3ccc(OCc4ccccc4)cc3CC[C@H]2[C@@H]1CC#N | – | – | – | – | Active | 20 | 8.5 | Non-toxic | – | – | – | – | – |
| -10.6 | 0.1 | -6.78 | C[C@]1(COC(=O)CCC(=O)O)CC[C@@H]2c3ccc(O)cc3CC[C@H]2[C@@H]1CC#N | 30% | – | – | – | – | – | 41.6 | – | 30 | 30 | 11.9 | 6.42 | – |
| 7.02 | 21.2 | -2.28 | C[C@]1(COC(=O)CCC(=O)O)CC[C@@H]2c3ccc(OCc4ccccc4)cc3CC[C@H]2[C@@H]1CC#N | 40% | – | – | – | – | – | 2.82 | – | 40 | 40 | – | – | 40 |
| – | – | 0.71 | C[C@]1(CO)CC[C@@H]2c3ccc(OCc4ccccc4)cc3CC[C@H]2[C@@H]1CC#N | – | – | – | – | – | – | 31.5 | – | – | – | – | – | – |
